Patent publication EP4467141A1, “PYRAZOLO-QUINOLINES AS SELECTIVE INHIBITORS OF GENOTOXIC STRESS-INDUCED IKK/NF- KB PATHWAYS FOR CANCER THERAPY” (Max-Delbrück-Centrum für Molekulare Medizin in der …, priority 2023, dated 2024)

Experiments:
Assay in all cases: Kinase panel study
Assay type in all cases: biochemical
Conditions in all cases: read-out: Percentage of inhibition; for inhibition at 1 µM: 1000nM; for inhibition at 10 µM: 10000nM
CDC42 BPB (MRCKB) = molecular target: T1, CDC42 BPB (MRCKB) (Homo sapiens, UniProt Q9Y5S2)
T1 construct: purchased Thermo Fisher Scientific
T1 sequence (Q9Y5S2 whole entry): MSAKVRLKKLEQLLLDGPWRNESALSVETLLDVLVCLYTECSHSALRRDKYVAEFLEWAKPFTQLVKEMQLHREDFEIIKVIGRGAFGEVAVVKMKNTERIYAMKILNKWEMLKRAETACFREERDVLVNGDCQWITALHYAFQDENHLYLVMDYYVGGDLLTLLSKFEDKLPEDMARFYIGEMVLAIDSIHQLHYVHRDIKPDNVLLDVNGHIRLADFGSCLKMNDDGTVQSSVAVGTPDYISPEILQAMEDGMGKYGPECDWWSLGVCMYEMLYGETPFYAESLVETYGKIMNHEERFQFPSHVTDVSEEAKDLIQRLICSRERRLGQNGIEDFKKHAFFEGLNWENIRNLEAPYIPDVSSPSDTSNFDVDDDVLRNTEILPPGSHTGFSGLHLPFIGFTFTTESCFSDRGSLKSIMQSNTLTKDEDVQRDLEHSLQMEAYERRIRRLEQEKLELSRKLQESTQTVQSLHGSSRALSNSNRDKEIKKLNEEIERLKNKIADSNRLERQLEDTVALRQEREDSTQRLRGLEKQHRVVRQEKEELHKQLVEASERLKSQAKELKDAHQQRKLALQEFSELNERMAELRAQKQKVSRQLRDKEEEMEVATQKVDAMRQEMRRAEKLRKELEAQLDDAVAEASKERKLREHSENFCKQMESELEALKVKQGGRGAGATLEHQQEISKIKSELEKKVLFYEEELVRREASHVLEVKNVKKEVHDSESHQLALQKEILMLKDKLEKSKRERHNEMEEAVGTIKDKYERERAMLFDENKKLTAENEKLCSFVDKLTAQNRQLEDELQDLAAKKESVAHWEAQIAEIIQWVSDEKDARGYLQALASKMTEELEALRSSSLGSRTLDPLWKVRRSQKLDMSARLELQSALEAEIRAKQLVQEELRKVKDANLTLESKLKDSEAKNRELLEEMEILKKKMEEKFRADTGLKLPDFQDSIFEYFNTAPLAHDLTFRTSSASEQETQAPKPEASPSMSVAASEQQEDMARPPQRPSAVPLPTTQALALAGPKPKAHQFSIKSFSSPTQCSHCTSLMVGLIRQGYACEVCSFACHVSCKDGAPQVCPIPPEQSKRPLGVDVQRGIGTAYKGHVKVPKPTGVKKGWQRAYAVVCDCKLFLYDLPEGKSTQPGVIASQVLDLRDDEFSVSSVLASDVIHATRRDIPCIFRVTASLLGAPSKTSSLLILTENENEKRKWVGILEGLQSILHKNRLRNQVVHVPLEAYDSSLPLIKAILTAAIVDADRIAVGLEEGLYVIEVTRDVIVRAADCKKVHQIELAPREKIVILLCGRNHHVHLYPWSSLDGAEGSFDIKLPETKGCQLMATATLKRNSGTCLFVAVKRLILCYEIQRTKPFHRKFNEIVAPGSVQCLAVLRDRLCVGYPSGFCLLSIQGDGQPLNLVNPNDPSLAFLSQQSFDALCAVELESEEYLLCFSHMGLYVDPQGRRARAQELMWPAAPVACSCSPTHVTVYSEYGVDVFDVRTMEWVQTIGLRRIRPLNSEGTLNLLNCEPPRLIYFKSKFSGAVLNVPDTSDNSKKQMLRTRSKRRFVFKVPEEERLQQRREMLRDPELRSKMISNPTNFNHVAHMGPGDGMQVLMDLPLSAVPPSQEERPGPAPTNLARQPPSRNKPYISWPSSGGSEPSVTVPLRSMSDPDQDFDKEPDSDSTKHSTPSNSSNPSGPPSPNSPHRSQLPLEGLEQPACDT
Procedure, shortened: (§1)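 Compounds were tested in vitro against the kinase panel by a service lab. Assays followed standard ZLyte or Adapta protocols. Activity was recorded as % inhibition at 10 µM or 1 µM, with IC50 values where determined.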

GRK5 = molecular target: T2, GRK5 (Homo sapiens, UniProt P34947)
T2 construct: purchased Thermo Fisher Scientific
Procedure, shortened: as §1

HCK = molecular target: T3, HCK (Homo sapiens, UniProt P08631)
T3 construct: purchased Thermo Fisher Scientific
T3 sequence (P08631 whole entry): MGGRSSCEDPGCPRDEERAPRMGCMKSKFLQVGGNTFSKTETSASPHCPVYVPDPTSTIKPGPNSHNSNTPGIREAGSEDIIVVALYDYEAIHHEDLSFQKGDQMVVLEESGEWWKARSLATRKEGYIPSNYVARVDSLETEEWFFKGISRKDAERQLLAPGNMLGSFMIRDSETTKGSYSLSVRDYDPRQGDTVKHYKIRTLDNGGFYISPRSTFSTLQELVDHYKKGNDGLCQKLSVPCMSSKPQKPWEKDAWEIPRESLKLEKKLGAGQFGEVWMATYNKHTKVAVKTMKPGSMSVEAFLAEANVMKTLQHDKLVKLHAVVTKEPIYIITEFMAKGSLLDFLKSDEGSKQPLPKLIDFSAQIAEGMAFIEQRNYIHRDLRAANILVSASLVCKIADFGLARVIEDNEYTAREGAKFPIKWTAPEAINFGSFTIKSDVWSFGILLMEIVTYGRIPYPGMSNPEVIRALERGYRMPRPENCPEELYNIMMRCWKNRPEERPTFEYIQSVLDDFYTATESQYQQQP
Procedure, shortened: as §1

PRKCB1 (PKC beta I) = molecular target: T4, PRKCB1 (PKC beta I) (Homo sapiens, UniProt P05771)
T4 construct: purchased Thermo Fisher Scientific
T4 sequence (P05771 whole entry): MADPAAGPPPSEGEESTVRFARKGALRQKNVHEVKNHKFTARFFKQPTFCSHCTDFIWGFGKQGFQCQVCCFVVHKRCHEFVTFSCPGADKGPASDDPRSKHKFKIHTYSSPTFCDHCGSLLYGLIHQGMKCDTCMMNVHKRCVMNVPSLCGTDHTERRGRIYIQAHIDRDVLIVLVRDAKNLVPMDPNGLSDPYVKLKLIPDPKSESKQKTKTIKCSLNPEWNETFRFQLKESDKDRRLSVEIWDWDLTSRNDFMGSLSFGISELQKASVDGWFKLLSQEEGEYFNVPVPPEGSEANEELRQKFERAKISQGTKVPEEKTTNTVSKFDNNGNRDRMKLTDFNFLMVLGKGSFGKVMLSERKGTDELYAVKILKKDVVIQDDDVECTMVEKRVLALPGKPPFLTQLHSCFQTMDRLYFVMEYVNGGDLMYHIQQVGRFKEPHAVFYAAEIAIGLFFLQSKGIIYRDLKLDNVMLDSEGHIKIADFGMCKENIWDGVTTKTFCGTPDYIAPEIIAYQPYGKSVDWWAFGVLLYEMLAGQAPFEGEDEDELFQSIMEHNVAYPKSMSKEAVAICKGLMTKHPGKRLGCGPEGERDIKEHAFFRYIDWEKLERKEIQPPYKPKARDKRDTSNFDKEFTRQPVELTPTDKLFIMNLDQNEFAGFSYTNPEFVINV
Procedure, shortened: as §1

EPHA1 = molecular target: T5, EPHA1 (Homo sapiens, UniProt P21709)
T5 construct: purchased Thermo Fisher Scientific
T5 sequence (P21709 26-976): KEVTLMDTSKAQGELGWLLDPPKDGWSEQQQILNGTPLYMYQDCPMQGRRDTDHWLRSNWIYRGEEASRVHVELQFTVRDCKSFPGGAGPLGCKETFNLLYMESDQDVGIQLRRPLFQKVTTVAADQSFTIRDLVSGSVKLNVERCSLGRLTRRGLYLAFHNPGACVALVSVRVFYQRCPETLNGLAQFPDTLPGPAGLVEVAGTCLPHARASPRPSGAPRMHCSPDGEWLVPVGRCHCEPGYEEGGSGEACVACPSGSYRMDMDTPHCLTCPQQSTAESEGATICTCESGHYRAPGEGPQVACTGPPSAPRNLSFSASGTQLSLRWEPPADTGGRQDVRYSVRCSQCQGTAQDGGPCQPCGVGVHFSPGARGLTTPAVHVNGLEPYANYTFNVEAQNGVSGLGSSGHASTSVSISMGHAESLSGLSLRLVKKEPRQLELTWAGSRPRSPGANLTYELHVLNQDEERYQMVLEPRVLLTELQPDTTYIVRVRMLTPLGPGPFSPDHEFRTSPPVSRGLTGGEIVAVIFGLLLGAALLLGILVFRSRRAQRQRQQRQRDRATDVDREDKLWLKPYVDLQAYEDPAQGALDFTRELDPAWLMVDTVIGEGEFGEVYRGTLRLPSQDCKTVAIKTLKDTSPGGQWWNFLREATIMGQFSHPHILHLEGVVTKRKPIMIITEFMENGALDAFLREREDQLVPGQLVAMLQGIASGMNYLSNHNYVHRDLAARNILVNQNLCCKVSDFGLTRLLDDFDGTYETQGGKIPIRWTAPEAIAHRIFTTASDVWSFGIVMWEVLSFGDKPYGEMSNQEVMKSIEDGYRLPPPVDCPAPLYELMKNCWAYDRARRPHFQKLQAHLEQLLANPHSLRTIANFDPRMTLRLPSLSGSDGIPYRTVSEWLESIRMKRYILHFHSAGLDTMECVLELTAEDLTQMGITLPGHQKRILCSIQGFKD
Procedure, shortened: as §1

RET V804L = molecular target: T6, RET V804L (Homo sapiens, UniProt P07949, V804L)
T6 construct: purchased Thermo Fisher Scientific
Procedure, shortened: as §1

CDK9/cyclin T1 = molecular target: T7, CDK9/cyclin T1 (Homo sapiens, UniProt P50750)
T7 construct: purchased Thermo Fisher Scientific
Procedure, shortened: as §1

NEK6 = molecular target: T8, NEK6 (Homo sapiens, UniProt Q9HC98)
T8 construct: purchased Thermo Fisher Scientific
T8 sequence (Q9HC98 whole entry): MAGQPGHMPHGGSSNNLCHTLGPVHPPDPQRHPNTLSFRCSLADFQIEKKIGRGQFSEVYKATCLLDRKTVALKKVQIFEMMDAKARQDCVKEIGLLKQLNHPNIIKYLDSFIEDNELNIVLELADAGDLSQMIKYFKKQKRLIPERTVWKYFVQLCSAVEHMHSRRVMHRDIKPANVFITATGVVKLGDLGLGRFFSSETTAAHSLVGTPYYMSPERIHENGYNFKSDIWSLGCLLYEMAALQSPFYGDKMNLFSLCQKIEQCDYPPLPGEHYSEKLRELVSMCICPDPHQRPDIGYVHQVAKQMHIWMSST
Procedure, shortened: as §1

HIPK2 = molecular target: T9, HIPK2 (Homo sapiens, UniProt Q9H2X6)
T9 construct: purchased Thermo Fisher Scientific
T9 sequence (Q9H2X6 whole entry): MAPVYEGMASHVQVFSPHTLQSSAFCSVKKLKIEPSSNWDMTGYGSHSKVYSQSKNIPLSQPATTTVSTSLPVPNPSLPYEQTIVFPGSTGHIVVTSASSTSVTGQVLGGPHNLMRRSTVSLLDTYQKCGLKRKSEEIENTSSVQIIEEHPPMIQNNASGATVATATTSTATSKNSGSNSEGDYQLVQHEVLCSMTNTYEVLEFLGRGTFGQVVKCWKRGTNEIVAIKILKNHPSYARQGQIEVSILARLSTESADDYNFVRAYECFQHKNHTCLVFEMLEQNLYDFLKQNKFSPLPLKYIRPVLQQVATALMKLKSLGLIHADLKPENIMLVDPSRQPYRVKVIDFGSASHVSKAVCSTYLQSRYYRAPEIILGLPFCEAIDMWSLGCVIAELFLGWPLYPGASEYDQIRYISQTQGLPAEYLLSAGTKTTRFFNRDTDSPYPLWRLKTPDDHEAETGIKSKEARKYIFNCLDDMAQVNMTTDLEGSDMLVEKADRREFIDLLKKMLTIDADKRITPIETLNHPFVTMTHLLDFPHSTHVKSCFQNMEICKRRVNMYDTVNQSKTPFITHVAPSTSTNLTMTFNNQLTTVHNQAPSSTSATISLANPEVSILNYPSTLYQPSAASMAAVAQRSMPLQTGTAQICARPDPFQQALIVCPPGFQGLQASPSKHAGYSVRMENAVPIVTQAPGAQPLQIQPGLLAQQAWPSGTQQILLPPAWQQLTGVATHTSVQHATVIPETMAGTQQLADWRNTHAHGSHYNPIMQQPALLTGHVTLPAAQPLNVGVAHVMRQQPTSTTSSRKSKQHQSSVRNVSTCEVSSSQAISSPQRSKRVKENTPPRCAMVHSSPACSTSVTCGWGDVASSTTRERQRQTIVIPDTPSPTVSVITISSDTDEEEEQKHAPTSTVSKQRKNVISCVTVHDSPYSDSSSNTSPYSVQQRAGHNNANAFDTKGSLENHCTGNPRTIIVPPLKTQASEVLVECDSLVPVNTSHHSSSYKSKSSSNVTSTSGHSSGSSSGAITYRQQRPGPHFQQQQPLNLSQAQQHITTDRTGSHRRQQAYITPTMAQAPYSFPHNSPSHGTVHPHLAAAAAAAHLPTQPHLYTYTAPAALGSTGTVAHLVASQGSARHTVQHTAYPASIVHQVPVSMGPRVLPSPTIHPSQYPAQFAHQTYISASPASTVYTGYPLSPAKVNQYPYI
Procedure, shortened: as §1

ABL1 = molecular target: T10, ABL1 (Homo sapiens, UniProt P00519)
T10 construct: purchased Thermo Fisher Scientific
Procedure, shortened: as §1

CSNK1G2 (CK1 gamma 2) = molecular target: T11, CSNK1G2 (CK1 gamma 2) (Homo sapiens, UniProt P78368)
T11 construct: purchased Thermo Fisher Scientific
T11 sequence (P78368 whole entry): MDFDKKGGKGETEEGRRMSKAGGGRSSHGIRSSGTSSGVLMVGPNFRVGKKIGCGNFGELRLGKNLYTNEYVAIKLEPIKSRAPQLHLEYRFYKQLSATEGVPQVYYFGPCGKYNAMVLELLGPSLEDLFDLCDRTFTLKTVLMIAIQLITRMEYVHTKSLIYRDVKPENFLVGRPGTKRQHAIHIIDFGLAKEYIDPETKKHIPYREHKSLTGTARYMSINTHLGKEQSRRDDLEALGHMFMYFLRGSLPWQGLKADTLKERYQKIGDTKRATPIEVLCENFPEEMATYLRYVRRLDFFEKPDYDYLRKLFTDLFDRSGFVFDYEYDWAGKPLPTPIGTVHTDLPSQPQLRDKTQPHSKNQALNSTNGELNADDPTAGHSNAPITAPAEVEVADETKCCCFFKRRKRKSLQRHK
Procedure, shortened: as §1

Compound | inhibition at 1 µM (CDC42 BPB (MRCKB)) [%] | inhibition at 10 µM (CDC42 BPB (MRCKB)) [%] | inhibition at 1 µM (GRK5) [%] | inhibition at 10 µM (GRK5) [%] | inhibition at 1 µM (HCK) [%] | inhibition at 10 µM (HCK) [%] | inhibition at 1 µM (PRKCB1 (PKC beta I)) [%] | inhibition at 10 µM (PRKCB1 (PKC beta I)) [%] | inhibition at 1 µM (EPHA1) [%] | inhibition at 10 µM (EPHA1) [%] | inhibition at 1 µM (RET V804L) [%] | inhibition at 10 µM (RET V804L) [%] | inhibition at 1 µM (CDK9/cyclin T1) [%] | inhibition at 10 µM (CDK9/cyclin T1) [%] | inhibition at 1 µM (NEK6) [%] | inhibition at 10 µM (NEK6) [%] | inhibition at 1 µM (HIPK2) [%] | inhibition at 10 µM (HIPK2) [%] | inhibition at 1 µM (ABL1) [%] | inhibition at 10 µM (ABL1) [%] | also measured
COc1ccc2c(c1OC)c(=O)n1c3ccc(O)cc3c3ccnc2c31 [MW01, 5-Hydroxy-10,11-dimethoxy-9H-benzo[c]indolo[3,2,1-ij][1,5]naphthyridin-9-one] | 0 | 5 | -3 | 0 | 13 | 22 | 1 | -17 | 9 | 16 | 15 | 38 | 11 | 20 | 4 | -4 | 48 | 74 | 15 | 27 | inhibition at 1 µM (CSNK1G2 (CK1 gamma 2)): 22%; inhibition at 10 µM (CSNK1G2 (CK1 gamma 2)): 41%
COc1ccc2cc3c(N)nn(C(=O)c4cccc(N(C)C)c4)c3nc2c1 [MW05, (3-Amino-7-methoxypyrazolo[3,4-b]quinolin-1-yl)-[3-(dimethylamino)phenyl]methanone] | 5 | -6 | -2 | 0 | 10 | 9 | 5 | -7 | 11 | -5 | 2 | 0 | 19 | 57 | 1 | -4 | 4 | 13 | 4 | 6 | inhibition at 1 µM (CSNK1G2 (CK1 gamma 2)): 4%; inhibition at 10 µM (CSNK1G2 (CK1 gamma 2)): 13%
